Where two headings read alike, the source gives them in different places.
Columns and labels:
[1] = test system: JAK1/TYK2 pSTAT5 (Tyr694/699) in THP-1 cell line; assay: IFNa-stimulated JAK1/TYK2 pSTAT5 (Tyr694/699) inhibition cellular assay, AlphaLISA; format: cell-based; conditions: Homo sapiens, THP-1 cells, AlphaLISA (Assay B)
Procedure, shortened: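 pSTAT5 (Tyr694/699) in lysates quantified by AlphaLISA (615 nm) after 30 min IFNa stimulation (100 ng/mL stock) of THP-1 cells. The cells, 2e4 per well in HBSS, had first been exposed 1 h at 37° C. to eight 6-fold compound dilutions, 10000 down to 0.04 nM final. IC50 fitted by 4PL regression, bottom 0, Hill slope −1.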

TYK2 JH2 = target: T1, TYK2 JH2 (Homo sapiens, UniProt P29597); assay: TYK2 JH2 binding assay (KINOMEscan KdELECT competitive binding); conditions: TYK2 JH2 domain
T1 construct: purchased DiscoverX (KINOMEscan KdELECT service); host or cells: E. coli BL21-derived (T7 phage display) or HEK-293
Procedure, shortened: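 The assay measures displacement of DNA- or phage-tagged TYK2 pseudokinase domain from an affinity resin; compound binding lowers the amount captured, read by qPCR. Incubation lasts 1 h at room temperature.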

[2] = IFNa-stimulated, read-out: Cellular THP1_IFNa-pSTATS_IC50
[3] = KINOMEscan KdELECT (Assay A), read-out: Biochemical TYK2_JH2_Kd
[4] = IFNa-stimulated, read-out: Cellular_THP1_IFNa-pSTATS_TYK2
[5] = KINOMEscan KdELECT (Assay A), read-out: Biochemical TYK2_DiscoverX_JH2_BND_Kd
[6] = DiscoverX KINOMEscan KdELECT (Assay A), read-out: Biochemical TYK2_DiscoverX_JH2_BND_Kd

T1 sequence (P29597 589-875 limits assumed): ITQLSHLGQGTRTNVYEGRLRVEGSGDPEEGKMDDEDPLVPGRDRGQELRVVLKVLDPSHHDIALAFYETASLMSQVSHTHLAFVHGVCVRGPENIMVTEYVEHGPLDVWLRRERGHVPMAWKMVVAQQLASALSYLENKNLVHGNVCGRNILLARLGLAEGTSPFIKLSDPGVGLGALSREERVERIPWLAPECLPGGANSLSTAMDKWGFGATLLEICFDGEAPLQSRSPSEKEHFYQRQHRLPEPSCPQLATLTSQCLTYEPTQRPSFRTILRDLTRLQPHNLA

SMILES | IC50 [1, 2] [nM] | Kd (TYK2 JH2; [3]) [nM] | IC50 [1, 4] [nM] | Kd (TYK2 JH2; [5]) [nM] | further results
CNc1ncc(-c2cc(C)no2)c2cc(NC(=O)C3CC3)ncc12 [Example 10, N-(8-(methylamino)-5-(3-methylisoxazol-5-yl)-2,7-naphthyridin-3-yl)cyclopropanecarboxamide] | > 500 | ≤ 100 | – | – | –
CNc1ncc(C#Cc2ccc(CN3C4CCC3COC4)cc2)c2cc(NC(=O)C3CC3)ncc12 [Example 815, N-(5-((4-(3-oxa-8-aza-bicyclo[3.2.1]octan-8-ylmethyl)phenyl)ethynyl)-8-(methylamino)-2,7-naphthyridin-3-yl)cyclopropanecarboxamide] | – | – | ≤ 500 | ≤ 100 | –
CNC(=O)c1cnc(NC)c2cnc(NC(=O)C3CC3)cc12 [Example 124, 6-(cyclopropanecarboxamido)-N-methyl-1-(methylamino)-2,7-naphthyridine-4-carboxamide] | > 500 | ≤ 100 | – | – | –
[2H]C([2H])([2H])Nc1ncc(-c2nc3ccccn3n2)c2cc(NC(=O)[C@@H]3C[C@@H]3F)ncc12 [Example 567, (1S,2S)—N-(5-([1,2,4]triazolo[1,5-a]pyridin-2-yl)-8-((methyl-d3)amino)-2,7-naphthyridin-3-yl)-2-fluorocyclopropane-1-carboxamide] | – | – | ≤ 500 | – | Kd (TYK2 JH2; [6]): ≤ 100 nM
CNc1ncc(-c2ccc(C3CC3)cc2)c2cc(NC(=O)C3CC3)ncc12 [Example 113, N-(5-(4-cyclopropylphenyl)-8-(methylamino)-2,7-naphthyridin-3-yl)cyclopropanecarboxamide] | > 500 | ≤ 100 | – | – | –
CNc1ncc(Cc2ccccc2)c2cc(NC(=O)C3CC3)ncc12 [Example 43, N-(5-benzyl-8-(methylamino)-2,7-naphthyridin-3-yl)cyclopropanecarboxamide] | > 500 | ≤ 100 | – | – | –
CNc1ncc(C2=CCOC2=O)c2cc(NC(=O)C3CC3)ncc12 [Example 85, N-(8-(methylamino)-5-(2-oxo-2,5-dihydrofuran-3-yl)-2,7-naphthyridin-3-yl)cyclopropanecarboxamide] | > 500 | 100 to 1000 | – | – | –
CNc1ncc(-c2ccn(Cc3nccs3)n2)c2cc(NC(=O)C3CC3)ncc12 [Example 151, N-(8-(methylamino)-5-(1-(thiazol-2-ylmethyl)-1H-pyrazol-3-yl)-2,7-naphthyridin-3-yl)cyclopropanecarboxamide] | > 500 | ≤ 100 | – | – | –
CNc1ncc(-c2nc3cc(C(F)(F)F)ccc3o2)c2cc(NC(=O)C3CC3)ncc12 [Example 217, N-(8-(methylamino)-5-(5-(trifluoromethyl)benzo[d]oxazol-2-yl)-2,7-naphthyridin-3-yl)cyclopropanecarboxamide] | – | – | ≤ 500 | – | Kd (TYK2 JH2; [6]): ≤ 100 nM
CNc1ncc(-c2ccc(Cl)cc2)c2cc(NC(=O)C3CC3)ncc12 [Example 16, N-(5-(4-chlorophenyl)-8-(methylamino)-2,7-naphthyridin-3-yl)cyclopropanecarboxamide] | > 500 | ≤ 100 | – | – | –
CNc1ncc(-c2nc3ccc(N4CCC(F)CC4)cn3n2)c2cc(NC(=O)C3CC3)ncc12 [Example 484, N-(5-(6-(4-fluoropiperidin-1-yl)-[1,2,4]triazolo[1,5-a]pyridin-2-yl)-8-(methylamino)-2,7-naphthyridin-3-yl)cyclopropanecarboxamide] | – | – | ≤ 500 | – | Kd (TYK2 JH2; [6]): ≤ 100 nM
CNc1ncc(-c2ccc(-c3ccnn3C)cc2)c2cc(NC(=O)C3CC3)ncc12 [Example 173, N-(5-(4-(1-methyl-1H-pyrazol-5-yl)phenyl)-8-(methylamino)-2,7-naphthyridin-3-yl)cyclopropanecarboxamide] | ≤ 500 | ≤ 100 | – | – | –
CNc1ncc(-c2ccc(OC3CC3)cc2)c2cc(NC(=O)C3CC3)ncc12 [Example 117, N-(5-(4-cyclopropoxyphenyl)-8-(methylamino)-2,7-naphthyridin-3-yl)cyclopropanecarboxamide] | > 500 | ≤ 100 | – | – | –
CNc1ncc(-c2nc3ccc(N4CCOCC4)cn3n2)c2cc(NC(=O)[C@@H]3C[C@@H]3C)ncc12 [Example 530, (1R,2S)-2-methyl-N-(8-(methylamino)-5-(6-morpholino-[1,2,4]triazolo[1,5-a]pyridin-2-yl)-2,7-naphthyridin-3-yl)cycloproapne-1-carboxamide] | – | – | ≤ 500 | – | Kd (TYK2 JH2; [6]): ≤ 100 nM
O=C(Nc1cc2c(-c3ccccc3)cnc(NCCO)c2cn1)C1CC1 [Example 160, N-(8-((2-hydroxyethyl)amino)-5-phenyl-2,7-naphthyridin-3-yl)cyclopropanecarboxamide] | > 500 | ≤ 100 | – | – | –
CNc1ncc(-c2nc3cc(C4=CCOCC4)ccc3o2)c2cc(NC(=O)C3CC3)ncc12 [Example 342, N-(5-(5-(3,6-dihydro-2H-pyran-4-yl)benzo[d]oxazol-2-yl)-8-(methylamino)-2,7-naphthyridin-3-yl)cyclopropanecarboxamide] | – | – | ≤ 500 | – | Kd (TYK2 JH2; [6]): ≤ 100 nM
CNc1ncc(-c2ccccc2)c2cc(NC(=O)C3CC3F)ncc12 (stereo not shown) [Example 103, 2-fluoro-N-(8-(methylamino)-5-phenyl-2,7-naphthyridin-3-yl)cyclopropane-1-carboxamide] | > 500 | ≤ 100 | – | – | –
CNc1ncc(-c2nc3cccc(CCC#N)c3o2)c2cc(NC(=O)C3CC3)ncc12 [Example 270, N-(5-(7-(2-cyanoethyl)benzo[d]oxazol-2-yl)-8-(methylamino)-2,7-naphthyridin-3-yl)cyclopropanecarboxamide] | – | – | ≤ 500 | – | Kd (TYK2 JH2; [6]): ≤ 100 nM

More lines, main results first:

IC50 [1, 2] [nM] | Kd (TYK2 JH2; [3]) [nM] | IC50 [1, 4] [nM] | Kd (TYK2 JH2; [5]) [nM] | SMILES | further results
– | – | ≤ 500 | ≤ 100 | CNc1ncc(C#Cc2ccc(OC3CN(C(C)=O)C3)cc2)c2cc(NC(=O)C3CC3)ncc12 [Example 705, N-(5-((4-((1-acetylazetidin-3-yl)oxy)phenyl)ethynyl)-8-(methylamino)-2,7-naphthyridin-3-yl)cyclopropanecarboxamide] | –
– | – | – | ≤ 100 | CNc1ncc(-c2nc3ccc(N4CCO[C@@H]([C@@H](C)O)C4)cn3n2)c2cc(NC(=O)C3CC3)ncc12 (single isomer, unassigned) [Example 1046] | IC50 ([1]; IFNa-stimulated pSTAT5 (Tyr694/699), read-out: Cellular_THP1_IFNa-pSTATS_TYK2): ≤ 500 nM
– | – | ≤ 500 | ≤ 100 | CNc1ncc(C#Cc2ccc3c(c2)OC[C@@H](COC)O3)c2cc(NC(=O)C3CC3)ncc12 (single isomer, unassigned) [Example 699] | –
– | – | > 500 | ≤ 100 | CNc1ncc(C23CC(c4ccncc4)(C2)C3)c2cc(NC(=O)C3CC3)ncc12 [Example 845, N-(8-(methylamino)-5-(3-(pyridin-4-yl)bicyclo[1.1.1]pentan-1-yl)-2,7-naphthyridin-3-yl)cyclopropanecarboxamide] | –
– | – | ≤ 500 | ≤ 100 | CNc1ncc(C#Cc2ccc(OC)cn2)c2cc(NC(=O)C3CC3)nnc12 [Example 884, N-(5-((5-methoxypyridin-2-yl)ethynyl)-8-(methylamino)pyrido[3,4-c]pyridazin-3-yl)cyclopropanecarboxamide] | –
– | – | ≤ 500 | ≤ 100 | [2H]C([2H])([2H])Nc1ncc(C#Cc2ccc(OC)cn2)c2cc(NC(=O)[C@H]3C[C@H]3C)ncc12 [Example 779, (1S,2R)—N-(5-((5-methoxypyridin-2-yl)ethynyl)-8-((methyl-d3)amino)-2,7-naphthyridin-3-yl)-2-methylcyclopropane-1-carboxamide] | –
– | – | ≤ 500 | ≤ 100 | CNc1ncc(C#Cc2ccc(N3CCOCC3)cc2)c2cc(NC(=O)C3CC3)ncc12 [Example 624, N-(8-(methylamino)-5-((4-morpholinophenyl)ethynyl)-2,7-naphthyridin-3-yl)cyclopropanecarboxamide] | –
– | – | ≤ 500 | ≤ 100 | CNc1ncc(-c2cc3ccc(OC)cn3n2)c2cc(NC(=O)[C@H]3C[C@H]3C)ncc12 [Example 877, (1S,2R)—N-(5-(6-methoxypyrazolo[1,5-a]pyridin-2-yl)-8-(methylamino)-2,7-naphthyridin-3-yl)-2-methylcyclopropane-1-carboxamide] | –
– | – | ≤ 500 | ≤ 100 | CNc1ncc(C#Cc2cc3c(cc2C)nnn3C)c2cc(NC(=O)C3CC3)ncc12 [Example 700, N-(5-((1,5-dimethyl-1H-benzo[d][1,2,3]triazol-6-yl)ethynyl)-8-(methylamino)-2,7-naphthyridin-3-yl)cyclopropanecarboxamide] | –
– | – | ≤ 500 | ≤ 100 | CNc1ncc(C#Cc2ccc3nc4n(c3c2)CCCC4)c2cc(NC(=O)C3CC3)ncc12 [Example 807, N-(8-(methylamino)-5-((1,2,3,4-tetrahydrobenzo[4,5]imidazo[1,2-a]pyridin-8-yl)ethynyl)-2,7-naphthyridin-3-yl)cyclopropanecarboxamide] | –
– | – | ≤ 500 | ≤ 100 | C=C(C)c1ccc2oc(-c3cnc(NC)c4cnc(NC(=O)C5CC5)cc34)nc2c1 [Example 931, N-(8-(methylamino)-5-(5-(prop-1-en-2-yl)benzo[d]oxazol-2-yl)-2,7-naphthyridin-3-yl)cyclopropanecarboxamide] | –
